Two compounds from patent publication US20060135415A1, “Immunomodulation and effect on cell processes relating to serotonin family receptors and the blood-brain barrier” (priority 2002, published 2006) can be followed below.

The structures appear in SMILES notation.

For assay [1], the system named is allogeneic CTL response against P815 cells. In words: Murine allograft model, CTL killing of P815 target cells by splenocytes. It is filed as in vivo, C57BL/6J mice. To be noted: 5HT antagonists 200 μg/injection tail vein days 6 and 8; Cyclosporin A 100 μg ip daily from day −2; sacrifice day 14 (FIGS. 13, 14). The procedure: The in vivo validation screen used was an art-recognized murine allogeneic rejection model as described in Zhan et al., 2000. For this assay, a complete MHC miss-match system was employed wherein 5×10^6 P815 cells ([H-2^d] DBA/2 mastocytoma) were injected into the peritoneal cavity of C57BL/6J (H-2^b) mice on day 0 of the experiment. These mice typically generate a strong cytotoxic T lymphocyte (CTL) reaction in response to P815 cells. Following the initial P815 cell inoculation, the mice were allowed to develop a CTL response (this usually takes about 10-14 days). […] Mice were then sacrificed on day 14 of the experiment as indicated in the figures; and the allogeneic CTL response was assayed as described previously (Tretiakova et al., 2000, Nature Biotechnology 18:984-988). The primary spleen cells from the treated and untreated animals were used in the direct CTL readout. Freshly obtained primary spleen cells were incubated with the [^3H] labeled target cells (P815 cells) at 100:1, 50:1, 25:1, and 12.5:1 ratios for 3.5 hours at 37° C. and harvested using a PHD harvester. The percentage of specific killing was determined using the formula % kill=(S−E)/S, where S is the amount of the DNA retained by the target cells in the absence of the effector cells and E is the amount of retained DNA in the presence of the effector cells (expressed in counts per minute; cpm).
This is an art-recognized model of allograft […] rejection based on that described by […]. (2000). In this model, there is a complete MHC mismatch between the P815 cells (H-2^d) and the C57BL6 mouse (H-2^b), thus ensuring an aggressive immune response. The data disclosed in FIG. 13, depicts results of experiments that included 6 treatment groups, each group consisting of three mice. Each mouse received 5×10^6 P815 cells injected into the peritoneal cavity on day 0 of the study. The first group was an untreated control group, which was used to establish the baseline response of the mice against the allogeneic stimulus. These mice, without any further treatments, were sacrificed, as were the other treatment groups, on day 14 of the study and their splenocytes assayed for target-specific killing of the P815 cells.
The average kill observed for the untreated group was about 45% at an effector to target ratio of 100:1. The second group was treated with risperidone, a 5HT-2 antagonist, administered via a tail vein bolus injection (200 μg/injection) on days 6 and 8 of the study. The timing of the drug administration was selected to ensure that the T cells were fully activated prior to the drug treatment. The third group was treated with propanolol, a 5HT-1 antagonist. All of the 5HT receptor antagonist-treated groups were treated as described for the risperidone-treated group. The fourth group was treated chronically with CyclosporinA. The Cyclosporin A was administered ip at a dosage of 100 μg/injection starting two days prior to the onset of the study, i.e., at day −2, and the injections were continued on a daily basis for the duration of the study.
Finally, studies conducted in vivo using the CD8-dependent allograft rejection model, in which P815 cells (a rapidly growing cell line taken from a mastocytoma in a DBA mouse), were expanded and used to create a robust rejection response in a C57BL6 mouse. In this study the mice received 5×10^6 P815 cells injected into their peritoneal cavity on day 0 of the study. The first group was an untreated control group (naïve animals), used to acquire the baseline response of the mice against the allogeneic stimulus. The positive controls were treated with the allogeneic cells without any further treatments. These animals were used to assess the induced allogeneic response against the P815 cells. […]

Assay [2] relates to ConA stimulated human lymphocytes. In words: Viable cell counts (trypan blue) during ConA stimulation. The class given is cell-based. The conditions noted are these: 10 μg/ml ConA, manual counts over time (FIG. 11). The procedure:
FIG. 11 is a diagram depicting the effect of a 5HT type 1 receptor antagonist and a 5HT type 2 receptor antagonist on the cell numbers occurring during the mitogenic stimulation of human lymphocyte activation. The cells were stimulated with 10 μg/ml ConA. The cells were repurified on a Ficoll gradient prior to addition of the inhibitor. Trypan blue exclusion was used to count the viable cells.
To further assess the effects of propanolol (a general 5-HTR 1 antagonist) and risperidone (a general 5-HTR 2 antagonist) on the mitogenically stimulated lymphocyte culture, the number of viable cells were manually counted as the assay progressed. If the cells were not stimulated, there was no detectable change in the number of viable cells. When the cells were stimulated with ConA, a small lag period was observed and the beginning of the growth phase compared to the stimulation response curve observed in the absence of the inhibitor. […] Apparently, there is no decrease or increase compared with the starting cell numbers. It is unclear whether or not this is due too anergy, an inability to initiate the activation pathway, or both. […] Thus, based on the data presented here, the classes of antagonists that inhibit the type 2 serotonin receptors appear to be rate limiting for the lymphocyte activation processes.

As for `Cc1nc2n(c(=O)c1CCN1CCC(c3noc4cc(F)ccc34)CC1)CCCC2` [risperidone], the “allograft (CTL) response” value in assay [1] was “inhibited the allograft response to varying degrees”. In addition, the “number of viable cells” value in assay [2] is “caused a brief cell increase, followed by the elimination of the cells in culture”.

On to `CC(C)NC[C@H](O)COc1cccc2ccccc12` (racemic) [propanolol], for which the “allograft (CTL) response” value in assay [1] is “did not protect the mice from the allograft rejection response”. The “number of viable cells” value in assay [2] is given as “prevents the cell from growing”.
